Measurements taken from patent publication US20040053355A1, “Modular approach to on-line synthesis, drug discovery and biochemical transformations using immobilized enzyme reactors” (priority 2000, published 2004).

Experiments:
[1] = molecular target: T1, dopamine beta-hydroxylase (DBH), non-immobilized (Bos taurus, UniProt P15101); experiment: Non-immobilized DBH activity assay, batch incubation with HPLC-fluorescence analysis; assay type: biochemical, bovine
T1 construct: purchased
T1 sequence (P15101 1-610): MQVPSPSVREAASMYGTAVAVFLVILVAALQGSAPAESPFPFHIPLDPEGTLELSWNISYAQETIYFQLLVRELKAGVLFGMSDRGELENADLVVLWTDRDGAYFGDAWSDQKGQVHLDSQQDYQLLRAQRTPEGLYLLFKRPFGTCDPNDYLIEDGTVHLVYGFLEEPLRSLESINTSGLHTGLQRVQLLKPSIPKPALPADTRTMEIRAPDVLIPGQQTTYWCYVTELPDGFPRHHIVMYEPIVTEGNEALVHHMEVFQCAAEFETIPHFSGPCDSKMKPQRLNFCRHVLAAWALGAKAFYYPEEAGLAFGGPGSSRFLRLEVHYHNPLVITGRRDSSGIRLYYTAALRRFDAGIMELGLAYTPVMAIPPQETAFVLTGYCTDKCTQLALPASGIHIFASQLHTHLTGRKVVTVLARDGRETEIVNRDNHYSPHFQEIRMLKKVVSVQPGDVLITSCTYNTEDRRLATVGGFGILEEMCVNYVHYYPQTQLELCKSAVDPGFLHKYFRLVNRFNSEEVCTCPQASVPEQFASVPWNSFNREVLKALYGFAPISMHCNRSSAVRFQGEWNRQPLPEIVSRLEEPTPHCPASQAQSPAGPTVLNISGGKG
Description: The solutes were quantitated using fluorescence detection with excitation at λ=265 nm and no cut-off filter for emission. A flow rate of 1 ml/min and ambient temperature were used throughout the study.
Enzymatic conversions utilizing DBH require cupric sulphate, catalase, ascorbic acid and sodium fumarate. An off-line extraction method utilizing solid phase extraction cartridges containing a phenylboronic acid stationary phase was developed. The procedure consisted of the following: 1-ml cartridges were conditioned with 2 ml of methanol followed by 2 ml of sodium phosphate buffer (0.1M, pH 8.4). One ml of reaction mixture was added, the cartridge was then washed with 1 ml sodium phosphate buffer (0.1M, pH 8.4) and the substrate and product were eluted using 1 ml of 0.1N HCl. The eluate was directly injected onto the HPLC system.
(§1) The enzyme was assayed as follows: four different solutions were prepared A, B, C and D (final concentration). (A) 500 μL of enzyme solution (10 μg/ml); B: 275 μL sodium acetate buffer (10 mM, pH 5.5), 50 μL cupric sulphate (5 μM); C: 25 μL catalase (5 μg/ml), 50 μL ascorbic acid (10 mM), 50 μl sodium fumarate (10 mM); D: 50 μl substrate (5 mM). Solution B was added to solution A, the resulting solution was mixed for 1 min. Solution C was added and the resulting solution was mixed for an additional minute. The reaction was started with the addition of the substrate (D), after which the reaction solution was incubated for 5 min at 37° C. in a shaking bath. The reaction was stopped by the addition of 100 μl of cold hexane, the resulting mixture was centrifuged at 3000×g for 10 min and the supernatant transferred to the pre-conditioned phenylboronic acid cartridges in order to extract the product formed and the remaining substrate. Extracted samples were directly injected onto the HPLC under either chiral or achiral conditions.

[2] = molecular target: T2, DBH-Glut-P IMER (immobilized dopamine beta-hydroxylase) (Bos taurus, UniProt P15101); experiment: On-line DBH-Glut-P immobilized enzyme reactor (DBH-Glut-P IMER) HPLC system; assay type: biochemical, bovine
T2 construct: purchased
T2 sequence (P15101 1-610): T1 sequence (P15101 1-610)
Text: DBH immobilized on the IAM or Glut-P stationary phase was packed into a 1 cm×10 mm guard (Regis Technologies). The guard was placed in a holder and the resulting column connected to a chromatographic system. THE DBH-IAM-IMER and the DBH-Glut-P-IMER was washed with sodium acetate buffer [0.1M, pH 5.5] and sodium acetate buffer [0.1M, pH 6.0], respectively. The eluent from both IMERs was collected in order to determine if any of the DBH was being washed off the columns. The Biorad assay was utilized to measure the amount of non-immobilized enzyme. When the columns were not in use they were washed with sodium acetate buffer at the respective pHs and stored at 4° C.
Pumps 2 and 3 on system 2 and 3 were stopped. 100 μl of a substrate/cofactor mixture is loaded into the injector (i) and the valve is switched to the inject position at the same time the witching valve (SV) is switched such that substrate/product are eluted from the DBH-IMERs and concentrated onto the PBA column of system 2.The second pump was started and mobile phase A was pumped through the PBA column at a flow rate of 0.1 ml/min for 30 sec in order to elute, ascorbic acid and any other by-products produced from the reaction. The pump was then switched to mobile phase B with a flow rate of 0.1 ml/min for 2 min and simultaneously SV1 was switched such that unreacted substrate and product formed were concentrated on the analytical columns of System 3. When the specific contact time elapses the SV2 is switched back to the original position and the pump 3 is started.
The enzymatic activity on the DBH-Glut-P was determined by quantification of the amount of product formed with a given substrate. The temperature of the IMER unless otherwise stated was kept at 37° C. with a column heater. Stock solutions of tyramine were prepared in water. […] The kinetic parameters were determined using standard Michaelis-Menten approach. […] The rates of reaction (Vmax) were calculated using […]mol/mg/min. Results are expressed as mean±standard error of the mean (SEM). […]

[3] = molecular target: T3, immobilized DBH (dopamine β-hydroxylase) (Bos taurus, UniProt P15101); experiment: Captopril inhibition of immobilized DBH, batch assay (support not specified); assay type: biochemical, bovine
T3 construct: purchased
T3 sequence (P15101 1-610): T1 sequence (P15101 1-610)
Description: as §1
The effect of captopril on immobilized DBH kinetics is represented in the form of a reciprocal velocity plot versus the reciprocal of the concentration of tyramine. […] The slope and intercept replots were linear (r>0.995).

[4] = molecular target: T4, dopamine beta-hydroxylase (Homo sapiens, UniProt P09172); details: 140 μM captopril; Cu2+ as CuSO4; Palatini et al., 1989; cited from earlier work
T4 sequence (P09172 1-617): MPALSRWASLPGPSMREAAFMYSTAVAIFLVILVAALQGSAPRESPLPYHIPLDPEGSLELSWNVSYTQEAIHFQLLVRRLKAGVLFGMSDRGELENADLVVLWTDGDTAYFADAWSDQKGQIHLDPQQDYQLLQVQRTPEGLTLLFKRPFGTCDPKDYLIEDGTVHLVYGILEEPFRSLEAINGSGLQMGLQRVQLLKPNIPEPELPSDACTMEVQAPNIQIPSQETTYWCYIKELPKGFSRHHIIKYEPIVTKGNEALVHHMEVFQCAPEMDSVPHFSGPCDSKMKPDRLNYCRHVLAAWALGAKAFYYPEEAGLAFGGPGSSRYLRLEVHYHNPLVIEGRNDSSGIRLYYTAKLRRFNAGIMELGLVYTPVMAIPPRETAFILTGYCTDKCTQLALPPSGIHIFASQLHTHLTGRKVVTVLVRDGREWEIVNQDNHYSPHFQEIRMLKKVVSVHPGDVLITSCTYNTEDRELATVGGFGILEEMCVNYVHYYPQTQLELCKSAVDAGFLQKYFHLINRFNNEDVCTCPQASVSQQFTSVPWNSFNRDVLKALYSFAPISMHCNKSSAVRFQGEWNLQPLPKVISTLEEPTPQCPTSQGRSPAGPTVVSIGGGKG

[5] = molecular target: T5, dopamine beta-hydroxylase immobilized onto Glut-P (DBH-Glut-P) (Bos taurus, UniProt P15101); experiment: DBH immobilized onto Glut-P stationary phase (DBH-Glut-P, DBH-Glut-P-SP), batch assay; assay type: biochemical, bovine; details: hydrochloride
T5 construct: purchased
T5 sequence (P15101 1-610): T1 sequence (P15101 1-610)
Description: The enzyme was assayed as follows: four different solutions were prepared A, B, C and D (final concentration). (A) 500 μL of enzyme solution (10 μg/ml); B: 275 μL sodium acetate buffer (10 mM, pH 5.5), 50 μL cupric sulphate (5 μM); C: 25 μL catalase (5 μg/ml), 50 μL ascorbic acid (10 mM), 50 μl sodium fumarate (10 mM); D: 50 μl substrate (5 mM). Solution B was added to solution A, the resulting solution was mixed for 1 min. Solution C was added and the resulting solution was mixed for an additional minute. The reaction was started with the addition of the substrate (D), after which the reaction solution was incubated for 5 min at 37° C. in a shaking bath. […]
The packing material was washed three times with sodium acetate buffer (0.1M, pH 6). […] The enzyme solution (8-10 μg in 1 ml sodium acetate buffer] was added to the packing material, the mixture was vortexed for 2 min and then placed on a shaker/rotator for 6 h at ambient temperature. At the end of 6 h, the suspension was centrifuged, the supernatant decanted and the packing material washed three additional times with the buffer. The amount of residual enzyme was determined utilizing the same procedure as that carried out for the enzyme immobilized onto IAM.

[6] = substrate: COc1cc(C(O)CN)ccc1O; experiment: Non-immobilized PNMT activity assay, batch incubation with HPLC-fluorescence analysis; assay type: biochemical, bovine; details: other: non-immobilized PNMT; 37.0 °C
Description: A mobile phase consisting of potassium phosphate buffer (50 mM) adjusted to pH 2.0 with trifluoroacetic acid was utilized to achieve the desired chromatographic separation of the products from the substrates. The solutes were quantitated using fluorescence detection with excitation at λ=266 nm and emission at λ=380 nm. A flow rate of 0.7 ml/min and ambient temperature were used throughout the study.
(§2) The activity of phenylethanolamine N-methyltransferase was assayed as follows: [final concentration] […] The reaction was started by addition of the 50 μL substrate [1 mM]. The reaction medium was incubated for 10 min at 37° C. in a shaking bath. The resulting solution was centrifuged at 3000×g and the supernatant were directly injected onto the HPLC under the above mentioned conditions.

[7] = substrate: COc1cc(C(O)CN)ccc1O; experiment: PNMT immobilized on Glut-P stationary phase (PNMT-SP), batch assay; assay type: biochemical, bovine; details: other: PNMT-SP, Table 5; pH 8.3; 37.0 °C
Description: as §2

[8] = substrate: COc1cc(C(O)CN)ccc1O; experiment: On-line PNMT immobilized enzyme reactor (PNMT-IMER) HPLC system; assay type: biochemical, bovine; details: other: PNMT-IMER, 0.2 ml/min, contact time 20 min, 37° C., n = 2, pH 8.3
Description: PNMT immobilized on the Glut-P stationary phase was packed into a lcm×10 mm guard (Regis Technologies). The guard was put into a holder and the column was placed onto the chromatographic system. The PNMT-IMER was washed with phosphate buffer [0.1M, pH 8.3]. The eluent was collected in order to determine if any of the enzyme was being washed off the column. The Biorad assay was utilized to measure the amount of non-immobilized enzyme. When the column was not in use it was washed with phosphate buffer [0.1M, pH 8.3] and stored at 4° C.
The pump on system 2 is stopped. 100 μl of a substrate/cofactor mixture is loaded into the injector (i) and the value is switched to the inject position at the same time the switching valve (SV) is switched such that the substrate/product are eluted from the PNMT-IMER and concentrated onto the analytical columns of System 2 for the specified contact time. […]
The enzymatic activity on the PNMT-IMER was determined by quantification of the amount of product formed with a given substrate. […]
Enzymatic activity was examined carrying out injections of a series of substrate/cofactor mixtures. […] The kinetic parameters were determined by drawing Lineweaver-Burke plots utilizing Microsoft Excel. Results are expressed as mean±standard error of the mean (SEM). […]

[9] = substrate: NCCc1ccc(O)c(O)c1; experiment: purified protein, by the assay type; details: other: non-immobilized DBH; Lineweaver-Burke; 37.0 °C
[10] = substrate: NCCc1ccc(O)cc1; experiment: Non-immobilized DBH activity assay, batch incubation with HPLC-fluorescence analysis; assay type: biochemical, bovine; details: other: non-immobilized DBH; Lineweaver-Burke; 37.0 °C
Description: (§3) Enzymatic conversions utilizing DBH require cupric sulphate, catalase, ascorbic acid and sodium fumarate. […] The procedure consisted of the following: 1-ml cartridges were conditioned with 2 ml of methanol followed by 2 ml of sodium phosphate buffer (0.1M, pH 8.4). One ml of reaction mixture was added, the cartridge was then washed with 1 ml sodium phosphate buffer (0.1M, pH 8.4) and the substrate and product were eluted using 1 ml of 0.1N HCl. The eluate was directly injected onto the HPLC system.

[11] = substrate: O=C1O[C@H]([C@@H](O)CO)C(O)=C1O; experiment: as above; assay type: biochemical, bovine; details: other: non-immobilized DBH; Lineweaver-Burke; 37.0 °C
Description: as §3

C[C@H](CS)C(=O)N1CCC[C@H]1C(=O)O [Captopril, captopril]
inhibition of DBH mediated formation of octopamine from tyramine ([1]; non-immobilized enzyme, concentrations as low as 150 μM): approximately 50%
IC50 ([1]; read-out: IC50 DBH (Non-immobilized)): 150 µM
concentration as low as which the IMER is inhibited ([2]; DBH-Glut-P IMER): 50 µM
IC50 ([2]; on-line injection of substrate/cofactor/inhibitor mixtures, read-out: IC50 DBH-Glut-P IMER): 120 µM
cupric sulphate concentration achieving reversal of the inhibition ([3]; enzyme form not stated): 2.5 µM
type of inhibition with respect to tyramine (reciprocal velocity plot) ([3]; immobilized DBH, tyramine as varied substrate): noncompetitive inhibition
inhibition of DBH mediated formation of octopamine from tyramine ([3]; immobilized enzyme, concentrations as low as 150 μM): approximately 50%
Cu^2+ concentration giving reversal of the inhibition [4]: 1.5 µM

Cl.NCCc1ccc(O)cc1 [Tyramine, tyramine hydrochloride]
Vmax [5]: 0.112^− μmol/mg/min

B1: phenylethanolamine N-methyltransferase (PNMT), non-immobilized (Bos taurus) (protein)
chain: MSGTDRSQAAGAVPDSDPGLAAVSSAYQRFEPRAYLRNNYAPPRGDLSCPDGVGPWKLRCLAQTFATGEVSGRTLIDIGSGPTIYQLLSACAHFEDITMTDFLEVNRQELRLWLREEPGAFDWSVYSQHVCLIEGKGESWQEKECQLRARVKRILPIDVHRPQPLGAGGLAPLPADALVSAFCLEAVSPDLASFQRALDHITTLLRPGGHLLLIGALEESWYLAGEARLAVVPVREEEVREALVRTATRCGICARTPMPAHLQTGVDDVKGIFFTRAQKKVGV
Km [6]: 109 µM

B2: PNMT-Glut-P stationary phase (PNMT-SP) (Bos taurus) (protein)
chain: B1 chain
Km [7]: 152 µM

B3: PNMT-IMER (immobilized phenylethanolamine N-methyltransferase) (Bos taurus) (protein)
chain: B1 chain
Km [8]: 384 µM

B4: dopamine beta-hydroxylase (DBH), non-immobilized (Bos taurus) (protein)
chain: T1 sequence (P15101 1-610)
notes: purchased
Km [9]: 5030 µM
Km [10]: 2850 µM
Km [11]: 620 µM
Vmax [11]: 0.185 µmol/mg/min
